Residues, ends and D or L forms follow the SMILES beside them. *: point of attachment. Cbz = O=C(OCc1ccccc1)*
How the values were obtained:
NEMs = experiment: MTT cell viability assay, epidermal model; details: topical exposure
Method: The LEMs and the NEMs were constructed by seeding 200.000 cells on insert filters (12 wells plate, polyester membrane, Costar) in Dermalife K medium including lifefactors (Lifeline Cell Technology, Walkersville, MD) until full density was reached. […] Thereafter they were cultured in CNT medium (basal medium plus supplement kit, CellnTec, Bern, Switzerland). […] Medium was refreshed every 2 days. LEMs and NEMs were air-exposed for 12 days at 37 °C and 7.3% CO2 prior to analysis.
Twelve days air-exposed LEMs or NEMs were covered with a 11 mm filter paper disc (Finn Chamber, Phoenix, USA). Chemicals with different doses were applied onto the filters and incubated for 24 h and thereafter washed away with PBS. LEMs or NEMs were then incubated with thiazolyl blue tetrazolium bromide (MTT), (Sigma). MTT stock of 5 mg/ml PBS (filter sterilized) was diluted to a final concentration of 1 mg/ml in colourless DMEM medium. MTT medium was added to the cell cultures and incubated for 3 h at 37°C. Viable cells were then allowed to reduce the tetrazolium dye to its insoluble formazan, which has a purple colour. Therefore, after 3 hours, the MTT was removed and washed away with PBS. After drying, the formazan was dissolved in 2ml of isopropanol overnight at room temperature. Absorbance was measured at 570 nm using a plate reader (TECAN infinite F200) in order to calculate the cell viability.

Nrf2 dependent genes [1] = experiment: Quantitative PCR of gene expression, NEMs; format: cell-based, human; details: 4 h, mRNA
Method: Medium was refreshed every 2 days.
(§1) Total RNA was prepared using RNeasy mini kit (Qiagen) according to the manufacturer's protocol. RNA was quantified using a Nanodrop ND-1000 spectrophotometer. First- strand cDNA synthesis was derived from 1 ug of total RNA using the iscript cDNA synthesis kit (Biorad) according to the manufacturer's protocol. Primers were tested in normal KC cDNA. Stability of reference genes was analyzed with the GeNorm method (Vandesompele et al., 2002). Expression analysis was performed with the BioRad software (iQ5) and was based on the delta delta Ct method with the reference genes that were most stably expressed according to the GeNorm analysis.
(§2) Expression levels of the following genes were measured: HMOX-1 (Hemeoxygenase-1), GCLM (Glutamate-cysteine ligase modifier subunit), TXNRD1 (Thioredoxin reductase 1), OSGIN-1 (oxidative stress induced growth inhibitor 1), B2M (Beta-2 microglobulin), GUSB (Glucuronidase beta) and TBP (TATA binding protein). Quantitative real-time PCR was determined by using the following primer sets: • 5'-[…]-'3 (HMOX-1), • 5'-[…]-'3 GCLM), • 5'-[…]-'3 (TXNRD1), • 5'- TGCTGCAGAGGAAGCTCAC-'3 (OSGIN1), • 5'-[…]-'3 (B2M), • 5'-[…]-'3 (GUSB), • 5'-[…]-'3 (TBP).
(§3) Real-Time PCRs were performed in 10 µl reaction volumes using the MylQ system and SYBR Green PCR Master- mix (Biorad) according to the manufacturer's protocol. […]

Nrf2 dependent genes [2] = experiment: Quantitative PCR of gene expression, N/TERT monolayer cultures; format: cell-based, human; details: 4 h, mRNA
Method: as §1, §2
Real-Time PCRs were performed in 10 µl reaction volumes using the MylQ system and SYBR Green PCR Master- mix (Biorad) according to the manufacturer's protocol.
The PCR cycles were: 3 minutes at 95 °C to activate the polymerase, 40 cycles of 20 seconds at 95 °C and 40 seconds at 60 °C, followed by the generation of a melt curve.
All qPCR values were averaged relative to the three different reference genes: B2M, GUSB, TBP. For each data point, PCRs were performed in duplicate and values represent means ± standard deviation.

Monolayer keratinocytes = experiment: WST-1 cell viability assay, monolayers; format: cell-based, human; details: WST-1, 24 h of treatment
Method: Cell viability of monolayers was measured using WST-1 assay (Roche diagnostics, Mannheim, Germany). Briefly, cells were seeded in 96-well flat-bottom plates (Greiner Bio-One, Frickenhausen, Germany) in 100 µl of culture medium 24-48 h prior to chemical treatment. After 24 h of treatment with an irritant or sensitizer, 10 µl of WST-1 reagent was added and plates were further incubated up to 3 h at 37°C. […] Monolayer keratinocytes were exposed to DNCB (10 µM) and SDS (80µM) at 80% cell viability concentrations.

Nrf2 dependent genes [3] = experiment: Quantitative PCR of gene expression, monolayer primary keratinocytes; format: cell-based, human; details: 4 h, mRNA
Method: as §1, §2, §3

Nrf2 [4] = experiment: Nrf2 nuclear translocation by immunohistochemical analysis, NEMs; format: cell-based, human; details: NEMs 12 days air-exposed, 4 h treatment
[5] = skin sensitizing potency; cited from earlier work
Nrf2 [6] = experiment: Nuclear fractionation and Western blot, N/TERT monolayer cultures; format: cell-based, human
Text: (§4) Nuclear fractions of monolayer cultures and reconstructed epidermis were isolate using a Nuclear extract kit (Active motif, Carlsbad, CA) according to the manufacturer's protocol. Nuclear fractions were subjected to Western blot analysis.
(§5) Monolayer cells were lysed in M-Per buffer (Thermo Scientific, Rockford, USA), reconstructed epidermis was cut in pieces and lysed in T-Per lysis buffer (Thermo Scientific, Rockford, USA) both supplemented with protease inhibitor cocktail EDTA-free and HALTTM phosphatase inhibitors (Thermo Scientific). Cell lysates were measured using the BCATM protein assay kit (Thermo Scientific). Equal amounts of proteins were separated by SDS-page. Proteins were transferred onto PVDF- transfer membranes (Thermo Scientific). […] After four times washing with PBST, proteins were detected by enhanced chemi-luminescence (Super signal West femto (Pierce Thermo Scientific, Rockford, USA) and visualized by exposure to X-ray film (Fujifilm Europe GmbH, Düsseldorf, Germany).
(§6) Next we investigated whether Nrf2 expression could be stabilized by inhibiting the proteasome that is responsible for a constitutive degradation of Nrf2. […] Although the Nrf2 translocation was clearly visible, we used a second approach enabling quantification of the amount of translocated Nrf2. […]

Nrf2 [7] = experiment: Nuclear fractionation and Western blot, monolayer primary keratinocytes; format: cell-based, human
Text: as §4, §5, §6

Nc1ccc(N)cc1 [PPD, p-Phenylenediamine]
concentrations of 80 - 85% CV (NEMs): 35 mM

O=[N+]([O-])c1ccc(Cl)c([N+](=O)[O-])c1 [DNCB, 2,4-dinitrochlorobenzene]
Expression of GLCM (Nrf2 dependent genes [1]): approx. 3,2 fold
Expression of OSGIN-1 (Nrf2 dependent genes [1]): approx. 2 fold
Expression of GCLM (Nrf2 dependent genes [2]): approx. 1,2 fold
Expression of OSGIN-1 (Nrf2 dependent genes [2]): approx. 1,2 fold
Expression of TXNRD-1 (Nrf2 dependent genes [2]): approx. 1,2 fold
80% cell viability concentrations (Monolayer keratinocytes): 10 µM
Expression of GCLM (Nrf2 dependent genes [3]): approx. 1,2 fold
Expression of OSGIN-1 (Nrf2 dependent genes [3]): approx. 1,2 fold
concentrations of 80 - 85% CV (NEMs): 0.5 mM

CCCCCCCCCCCCOS(=O)(=O)[O-].[Na+] [SDS, Sodium Dodecyl Sulfate]
80% cell viability concentrations (Monolayer keratinocytes): 80 µM
Nrf2 in the nuclei (Nrf2 [4]): Nrf2 was only translocated to the nucleus after DNCB treatment

CC=Cc1ccc(O)c(OC)c1 [IsoEu, Isoeugenol]
concentrations of 80 - 85% CV (NEMs): 15 mM
Potency category [5]: moderate

CC(C)C[C@@H](C=O)NC(=O)[C@H](CC(C)C)NC(=O)[C@H](CC(C)C)NC(=O)OCc1ccccc1 [MG132] (Cbz-Leu-Leu-Leu-aldehyde)
Nrf2 protein levels in nuclear lysates (Nrf2 [6]): elevated levels of Nrf2
Nrf2 protein levels in nuclear lysates (Nrf2 [7]): elevated levels of Nrf2

Reference: patent publication EP2835640A1, “Method for predicting the skin sensitizing activity of a compound” (Academisch Ziekenhuis Leiden HODN Leids Universitair …, priority 2013, dated 2015)
